Measured values published in patent US20210213104A1, “GLUCAGON AND GLP-1 CO-AGONISTS FOR THE TREATMENT OF CHRONIC KIDNEY DISEASE AND DIABETIC KIDNEY DISEASE IN TYPE 2 DIABETES” (MEDIMMUNE LIMITED, priority 2020, published 2021).
“And” between values parts separate entries of the source, which are not always exact repeats. Equal entries are not always repeated.

Tests used:
Assay type in all cases: in vivo, human
[1] = tested on: subjects with T2DM and renal impairment; assay: Phase 2a: bioimpedance spectroscopy (fluid status); settings: baseline (Day 1) to end of dosing
Method: Assessment of body composition, including but not limited to extracellular and intracellular volume and total body water, were conducted with bioimpedance spectroscopy using the SFB7 device produced by ImpediMed. Bioimpedance spectroscopy measures were not conducted in any subject with a pacemaker or implantable electronic device, e.g., an implantable cardiac defibrillator, as described in the manufacturer's instructions.
Bioimpedance spectroscopy was performed prior to dosing on Visit 4 (Day 1; Baseline) and following dosing on Visits 6 (Day 5), 7 (Day 12), 8 (Day 19), and 9 (Day 32). Subjects were to void their bladder and abstain from exercising 2 hours prior to the assessment. The subjects laid in a supine position 5 minutes before the measurement, while not touching any metal surfaces. The subjects' limbs were not crossed, the legs were completely separated, and the arms were not to touch the torso. For subjects who could not effectively separate their inner thighs, insulating material (e.g., a towel) may have been between the legs. The bioimpedance spectroscopy was set to make three repeat measurements. The subject was to remain still and relaxed during the measurement. The points of contact for the electrodes were marked on the subject's skin and the same positions used at all occasions. […]

Phase 2a: body weight = settings: for Weight, Absolute Change From Day 1, Difference in LS Mean Change (vs Placebo) / Weight, Absolute Change From Day 1, LS Mean Change / Weight, Percent Change from Day 1, Difference in LS Mean Change (vs Placebo) / Weight, Percent Change from Day 1, LS Mean Change: ANCOVA; for Weight, Absolute Change From Day 1, Difference in LS Mean Change (vs Placebo) / Weight, Absolute Change From Day 1, LS Mean Change / Weight, Percent Change from Day 1, Difference in LS Mean Change (vs Placebo) / Weight, Percent Change from Day 1, LS Mean Change / Weight, Absolute Change From Day 1, Mean / Weight, Absolute Change From Day 1, Median / Weight, Percent Change from Day 1, Mean / Weight, Percent Change from Day 1, Median / Weight, End of Dosing (Day 33), Mean / Weight, End of Dosing (Day 33), Median: ITT
Method: (§1) Cotadutide was titrated from 50 μg up to 300 μg and administered once daily by subcutaneous (SC) injection over 32 days.
(§2) Cotadutide was administered at 50 μg once daily for 4 days, followed by 100 μg daily for 7 days, 200 μg daily for 7 days, and 300 μg daily for 14 days (n=20). Placebo was administered one daily for 32 days (n=20). Cotadutide and placebo were administered in the morning. Dosing commenced following predose baseline vital signs, blood tests (including HbA1c), an electrocardiogram (ECG), body weight measurement, and bioimpedance spectroscopy (BIS). Subjects then returned for daily dosing or remained overnight locally until Day 5, and thereafter, had visits at weekly intervals until a maintenance dose of 300 μg was established. Thus, Cotadutide or placebo was administered at the study site by study personal for the first four doses and on site on Days 5, 12, 19, and 32. At all other times, subjects preformed dosing at home.
Weight was measured after the subject had toileted and removed bulky clothing, including shoes. Whenever possible, the same calibrated scale was used for each measurement for any given subject.

[2] = Phase 2a: pharmacokinetics in plasma (LC/MS-MS)
Method: Blood was collected to evaluate to pharmacokinetics (PK) of Cotadutide in plasma. The PK was measured using a validated liquid chromatography-tandem mass spectrometry (LC/MS-MS) method.
Pharmacokinetic characterization of Cotadutide at 300 μg was obtained using full PK profiles collected during the last day of dosing at 300 μg (Day 32). Additional Ctrough concentrations were collected through the study duration to check exposure.

[3] = tested on: subjects with T2DM and renal impairment; assay: Phase 2a: fasting glucose blood test; settings: ITT; for Fasting Glucose LS Mean Change / Fasting Glucose Change from Baseline, Mean / Fasting Glucose Change from Baseline, Median / Fasting Glucose Difference in LS Mean Change (vs Placebo): Day 1 to Day 32; for Fasting Glucose LS Mean Change: ANCOVA
Method: as §1, §2
Blood samples were collected to evaluate blood glucose (fasting) and HbA1c levels.
Fasting glucose was measured from baseline (Day 1) to the end of treatment (Day 32). […] LS mean reduction of fasting glucose from baseline was more apparent in subjects in the Insulin Dose <20 U/day subgroup compared to Insulin Dose ≥20 U/day subgroup.

[4] = tested on: subjects with T2DM and renal impairment; assay: Phase 2a: total daily insulin dose adjustment
Method: The effect of Cotadutide on insulin dose adjustment was evaluated for subjects on ≥20 U/day insulin. […] The mean percent reduction in total daily insulin dose from baseline until the end of dosing was statistically significant compared to placebo, especially in the HbA1c<8.0% subgroup (Table 15).

[5] = Day 1 to Day 33, Insulin Dose < 20 U/day subgroup
[6] = Day 1 to Day 33, Insulin Dose ≥ 20 U/day subgroup
[7] = Insulin Dose < 20 U/day subgroup
[8] = Insulin Dose ≥ 20 U/day subgroup

CCCCCCCCCCCCCCCC(=O)N[C@@H](CCC(=O)NCCCC[C@H](NC(=O)[C@H](CC(=O)O)NC(=O)[C@H](CO)NC(=O)[C@@H](NC(=O)[C@H](Cc1ccccc1)NC(=O)[C@@H](NC(=O)CNC(=O)[C@H](CCC(N)=O)NC(=O)[C@H](CO)NC(=O)[C@@H](N)Cc1c[nH]cn1)[C@@H](C)O)[C@@H](C)O)C(=O)N[C@@H](CO)C(=O)N[C@@H](CCC(=O)O)C(=O)N[C@@H](Cc1ccc(O)cc1)C(=O)N[C@@H](CC(C)C)C(=O)N[C@@H](CC(=O)O)C(=O)N[C@@H](CO)C(=O)N[C@@H](CCC(=O)O)C(=O)N[C@@H](CCCNC(=N)N)C(=O)N[C@@H](C)C(=O)N[C@@H](CCCNC(=N)N)C(=O)N[C@@H](CC(=O)O)C(=O)N[C@@H](Cc1ccccc1)C(=O)N[C@H](C(=O)N[C@@H](C)C(=O)N[C@@H](Cc1c[nH]c2ccccc12)C(=O)N[C@@H](CC(C)C)C(=O)N[C@@H](CCC(=O)O)C(=O)N[C@@H](C)C(=O)NCC(=O)NCC(=O)O)C(C)C)C(=O)O [Cotadutide]
changes in total body water volume, intracellular fluid volume, or extracellular fluid volume vs placebo [1]: no clinically meaningful differences | weight loss, percentage (Phase 2a: body weight; <20 U/day Insulin group): −5.38% | Weight, Absolute Change From Day 1, Difference in LS Mean Change (vs Placebo) (Phase 2a: body weight; [5]): -3.99 kg | Weight, Absolute Change From Day 1, LS Mean Change (Phase 2a: body weight; [5]): -4.72 kg | Weight, Percent Change from Day 1, Difference in LS Mean Change (vs Placebo) (Phase 2a: body weight; [5]): −4.74% | Weight, Percent Change from Day 1, LS Mean Change (Phase 2a: body weight; [5]): −5.38% | Weight, Absolute Change From Day 1, Mean (Phase 2a: body weight; [5]): -4.74 kg | Weight, Absolute Change From Day 1, Median (Phase 2a: body weight; [5]): -4.50 kg | Weight, Percent Change from Day 1, Mean (Phase 2a: body weight; [5]): −5.26% | Weight, Percent Change from Day 1, Median (Phase 2a: body weight; [5]): −4.53% | Weight, Absolute Change From Day 1, Difference in LS Mean Change (vs Placebo) (Phase 2a: body weight; [6]): -2.79 kg | Weight, Absolute Change From Day 1, LS Mean Change (Phase 2a: body weight; [6]): -2.66 kg | Weight, Percent Change from Day 1, Difference in LS Mean Change (vs Placebo) (Phase 2a: body weight; [6]): −2.66% | Weight, Percent Change from Day 1, LS Mean Change (Phase 2a: body weight; [6]): −2.69% | Weight, Absolute Change From Day 1, Mean (Phase 2a: body weight; [6]): -2.60 kg | Weight, Absolute Change From Day 1, Median (Phase 2a: body weight; [6]): -1.90 kg | Weight, Percent Change from Day 1, Mean (Phase 2a: body weight; [6]): −2.61% | Weight, Percent Change from Day 1, Median (Phase 2a: body weight; [6]): −2.00% | Weight, Absolute Change From Day 1, Difference in LS Mean Change (vs Placebo) (Phase 2a: body weight; Day 1 to Day 33, Total): -3.28 kg | Weight, Absolute Change From Day 1, LS Mean Change (Phase 2a: body weight; Day 1 to Day 33, Total): -3.41 kg | Weight, Percent Change from Day 1, Difference in LS Mean Change (vs Placebo) (Phase 2a: body weight; Day 1 to Day 33, Total): −3.47% | Weight, Percent Change from Day 1, LS Mean Change (Phase 2a: body weight; Day 1 to Day 33, Total): −3.69% | Weight, Absolute Change From Day 1, Mean (Phase 2a: body weight; Day 1 to Day 33, Total): -3.39 kg | Weight, Absolute Change From Day 1, Median (Phase 2a: body weight; Day 1 to Day 33, Total): -3.60 kg | Weight, Percent Change from Day 1, Mean (Phase 2a: body weight; Day 1 to Day 33, Total): −3.59% | Weight, Percent Change from Day 1, Median (Phase 2a: body weight; Day 1 to Day 33, Total): −3.68% | LS mean reduction in absolute body weight (Phase 2a: body weight; Day 1 to Day 33, all subjects): -3.41 kg | LS mean reduction in percentage body weight (Phase 2a: body weight; Day 1 to Day 33, all subjects): −3.69% and −3.7% | Weight, End of Dosing (Day 33), Mean (Phase 2a: body weight; [7]): 91.27 kg | Weight, End of Dosing (Day 33), Median (Phase 2a: body weight; [7]): 88.70 kg | Weight, End of Dosing (Day 33), Mean (Phase 2a: body weight; [8]): 94.13 kg | Weight, End of Dosing (Day 33), Median (Phase 2a: body weight; [8]): 96.15 kg | Weight, End of Dosing (Day 33), Mean (Phase 2a: body weight; Total): 93.08 kg | Weight, End of Dosing (Day 33), Median (Phase 2a: body weight; Total): 94.10 kg | weight loss, percentage (Phase 2a: body weight; ≥20 U/day Insulin group): −2.69% | AUC ([2]; human, plasma, 300 ug, Day 32, 300 μg SC, geometric mean, N = 16): 286 ng·h/mL | Cmax ([2]; human, plasma, 300 ug, Day 32, 300 μg SC, geometric mean, N = 18): 16.9 ng/mL | Tmax ([2]; human, plasma, 300 ug, Day 32, 300 μg SC, median, N = 18): 5.6 h | PK linearity for Ctrough ([2]; repeat daily SC doses 50 to 300 μg): linear PK | Fasting Glucose LS Mean Change ([3]; Insulin Dose < 20 U/day): -32.24 mg/dL | Fasting Glucose LS Mean Change ([3]; Insulin Dose ≥ 20 U/day): -12.28 mg/dL | Fasting Glucose LS Mean Change ([3]; Total): -19.55 mg/dL | Fasting Glucose Change from Baseline, Mean ([3]; Insulin Dose < 20 U/day): -31.79 mg/dL | Fasting Glucose Change from Baseline, Median ([3]; Insulin Dose < 20 U/day): -39.64 mg/dL | Fasting Glucose Difference in LS Mean Change (vs Placebo) ([3]; Insulin Dose < 20 U/day): -28.11 mg/dL | Fasting Glucose Change from Baseline, Mean ([3]; Insulin Dose ≥ 20 U/day): -9.39 mg/dL | Fasting Glucose Change from Baseline, Median ([3]; Insulin Dose ≥ 20 U/day): -9.01 mg/dL | Fasting Glucose Difference in LS Mean Change (vs Placebo) ([3]; Insulin Dose ≥ 20 U/day): -15.02 mg/dL | Fasting Glucose Change from Baseline, Mean ([3]; Total): -17.64 mg/dL | Fasting Glucose Change from Baseline, Median ([3]; Total): -19.82 mg/dL | Fasting Glucose Difference in LS Mean Change (vs Placebo) ([3]; Total): -20.15 mg/dL | Fasting Glucose, Day 32, Mean ([3]; Insulin Dose < 20 U/day): 125.75 mg/dL | Fasting Glucose, Day 32, Median ([3]; Insulin Dose < 20 U/day): 125.24 mg/dL | Fasting Glucose, Day 32, Mean ([3]; Insulin Dose ≥ 20 U/day): 159.03 mg/dL | Fasting Glucose, Day 32, Median ([3]; Insulin Dose ≥ 20 U/day): 141.91 mg/dL | Fasting Glucose, Day 32, Mean ([3]; Total): 146.77 mg/dL | Fasting Glucose, Day 32, Median ([3]; Total): 139.66 mg/dL | reduction in insulin dose ([4]; over 32 days, P=0.012): 35.2% | percentage reduction from baseline in total daily insulin dose at the end of treatment ([4]; participants with insulin dose of at least 20 U/day, Day −2 to end of treatment): −35.2%
